According to ChEMBL document CHEMBL3774372, “Design, physico-chemical properties and biological evaluation of some new N-[(phenoxy)alkyl]- and N-{2-[2-(phenoxy)ethoxy]ethyl}aminoalkanols as anticonvulsant agents” (Bioorg Med Chem, 2016):

Columns and labels:
[1] = biological target: Muscarinic acetylcholine receptor M5 (Homo sapiens, UniProt P08912); assay: Displacement of [3H]4-DAMP from human recombinant muscarinic M5 receptor expressed in CHO cells; assay type: cell-based
[2] = Displacement of [3H]alpha,beta-MeATP from rat urinary bladder P2X receptor

Muscarinic acetylcholine receptor M5, sequence (P08912 whole entry): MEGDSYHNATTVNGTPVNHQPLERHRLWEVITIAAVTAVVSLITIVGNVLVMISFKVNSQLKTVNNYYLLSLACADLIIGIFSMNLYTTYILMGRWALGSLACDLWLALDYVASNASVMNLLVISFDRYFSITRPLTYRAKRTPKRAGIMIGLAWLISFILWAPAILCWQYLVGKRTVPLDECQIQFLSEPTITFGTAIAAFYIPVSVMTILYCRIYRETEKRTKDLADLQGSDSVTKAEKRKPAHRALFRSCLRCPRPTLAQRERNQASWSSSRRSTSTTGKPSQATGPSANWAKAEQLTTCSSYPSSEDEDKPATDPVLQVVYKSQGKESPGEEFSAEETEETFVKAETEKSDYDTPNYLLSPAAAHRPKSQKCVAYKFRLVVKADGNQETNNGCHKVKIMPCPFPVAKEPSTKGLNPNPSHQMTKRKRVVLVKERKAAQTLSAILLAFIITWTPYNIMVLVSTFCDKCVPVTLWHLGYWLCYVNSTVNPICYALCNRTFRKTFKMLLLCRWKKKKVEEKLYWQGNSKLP

Row | SMILES | IC50 [1] [nM] | IC50 [2] [nM]
1 | C[N+]1(C)CCC(OC(=O)C(c2ccccc2)c2ccccc2)CC1 [4-DAMP] | 0.32 | 
2 | Nc1ncnc2c1ncn2[C@@H]1O[C@H](COP(=O)(O)CP(=O)(O)OP(=O)(O)O)[C@@H](O)[C@H]1O [DIPHOSPHOMETHYLPHOSPHONIC ACID ADENOSYL ESTER] |  | 1.9
